Data taken from paper PMC9228535, “Antistaphylococcal Activities and ADME-Related Properties of Chlorinated Arylcarbamoylnaphthalenylcarbamates” (Pharmaceuticals, 2022).
Converted amounts (≈) assume the structure as drawn. Read-outs that look alike come from different tables or passages of the source.

Key:
[1] = Lipophilicity determination by RP-HPLC (log k, log D); type: physicochemical; conditions: for log D6.5 / log D7.4 / log k: RP-HPLC; for log D6.5: MeOH 72%/acetate buffered saline pH 6.5; for log D7.4: MeOH 72%/acetate buffered saline pH 7.4; for log k: MeOH 72%/water 28%
Protocol: Lipophilicity was measured by reversed-phase high performance liquid chromatography (RP-HPLC) under isocratic conditions with methanol as the organic modifier in the aqueous mobile phase and the logarithm of the capacity factor k was calculated, which is used as the lipophilicity index converted to the log P scale. In addition to the log k values, the logarithm of the distribution coefficient DpH at pH 6.5 and 7.4 was determined to clarify the behavior of the compounds under physiological conditions and possible ionization. Instead of water, a buffer of suitable pH was used as part of the mobile phase. In addition to the above-mentioned experimental methods, commercially available ChemBioDraw Ultra 13.0 and ACD/Percepta ver. […] In addition to lipophilicity, other parameters discussed in Ro5, such as molecular weight, number of H-bond donors/acceptors, as well as parameters not reported in Ro5, but characterizing the physicochemical properties of the prepared molecules, such as number of rotatable bonds, were predicted using ACD/Percepta. Moreover, for each R substituent, bulkiness expressed as molar volume (MV [cm^3]), a parameter describing the tail length/branching of each carbamates, was calculated.
A HPLC separation module Agilent 1200 Series (Agilent Technologies, Santa Clara, CA, USA) equipped with a Dual Absorbance Detector (DAD SL G1315C, Agilent Technologies) was used. A chromatographic column Symmetry® C18 5 μm, 4.6 × 250 mm, Part No. W21751W016 (Waters Corp, Milford, MA, USA) was used. The HPLC separation process was monitored by ChemStation for LC 3D systems (Agilent Technologies). […] The total flow of the column was 1.0 mL/min, injection 20 μL, column temperature 40 °C, and sample temperature 10 °C. The detection wavelength of 210 nm was chosen. A KI methanolic solution was used for the determination of the dead times (tD). Retention times (tR) were measured in minutes. The capacity factors k were calculated according to the formula k = (tR − tD)/tD, where tR is the retention time of the solute, and tD is the dead time obtained using an unretained analyte. The distribution coefficients DpH were calculated according to the formula DpH = (tR − tD)/tD. Each experiment was repeated three times.

THP-1 cells = assay: In vitro cytotoxicity assay (WST-1); type: cell-based; conditions: Homo sapiens; THP-1, 24 h, ± SD, n = 6; read-out: IC50
Protocol: Preliminary in vitro cytotoxicity screening of the investigated compounds was performed using human monocytic leukemia THP-1 cells, see Table 2. The ability to inhibit the human cancer cell viability (IC50) of the compounds was compared to camptothecin toxicity (0.16 ± 0.07 μM). […] However, these values are up to two orders of magnitude higher than their significant antistaphyloccocal concentrations. This fact is also taken into account in the calculated selectivity index (SI), Table 2, where for only three compounds the SI is <20, while for the rest of the agents SI is >20, and for some derivatives even 100 and more. Thus, based on all these observations, it can be concluded that all the tested derivatives can be considered as in vitro non-toxic compounds for the subsequent design of new therapeutic agents.
The human THP-1 cell line (European Collection of Cell Cultures, Salisbury, UK) was cultured in RPMI 1640 medium supplemented with 10% fetal bovine serum, 2% L-glutamine, 1% penicillin, and streptomycin at 37 °C with 5% CO2. Cells were passaged at approximately 1-week intervals. All the tested compounds were prepared and dissolved as mentioned in our previous work.

MRSA SA 3202 [2] = assay: MIC, microtitration broth method; type: cell-based; conditions: Staphylococcus aureus
Protocol: (§1) All the investigated compounds were screened for in vitro antibacterial activity against the reference and quality control strain Staphylococcus aureus ATCC 29213 and clinical isolates of methicillin-resistant S. aureus (MRSA) 63718, SA 630, and SA 3202 [14]. Activities are expressed as the minimum inhibitory concentrations (MICs), see Table 2. In addition to the MICs, the minimum bactericidal concentrations (MBCs) were also determined.
(§2) In vitro antibacterial activity of the synthesized compounds was evaluated against representatives of multidrug-resistant bacteria, three clinical isolates of methicillin-resistant S. aureus: clinical isolate of animal origin, MRSA 63718 (Department of Infectious Diseases and Microbiology, Faculty of Veterinary Medicine, University of Veterinary Sciences Brno, Czech Republic), carrying the mecA gene; and MRSA SA 630 [46] and MRSA SA 3202 [46] (National Institute of Public Health, Prague, Czech Republic), both of human origin. Suspected colonies were confirmed by PCR; a 108bp fragment specific for S. aureus was detected. All isolates were tested for the presence of the mecA gene encoding methicillin resistance. […] Vancomycin-susceptible methicillin-susceptible S. aureus (VS-MSSA) ATCC 29213, obtained from the American Type Culture Collection, was used as the reference and quality control strain. Enterococcus faecalis ATCC 29212 was obtained from the American Type Culture Collection and used as the reference and quality control strain.
(§3) The minimum inhibitory concentrations (MICs) were evaluated by the microtitration broth method according to the CLSI [64, 65] with some modifications. The compounds were dissolved in DMSO (Sigma, St. Louis, MO, USA) to get a concentration […] and diluted in a microtitration plate in an appropriate medium, namely, Cation Adjusted Mueller–Hinton (CaMH, Oxoid, Basingstoke, UK) for staphylococci (S. aureus ATCC 29213, clinical isolates of MRSA 63718, SA 630, and SA 3202) and brain heart infusion (BHI, Oxoid) for E. faecalis ATCC 29212, to reach the final concentration of 256-0.125 µg/mL. The plate was inoculated by the tested microorganisms. The final concentration of bacterial cells was 10^5 for bacteria. Ampicillin (Sigma) was used as reference drugs. A drug-free control and a sterility control were included. The plates were incubated for 24 h at 37 °C for staphylococci and E. faecalis ATCC 29212 (stability evaluation of the carbamates, see Supplementary materials, Table S1). […] The experiments were repeated three times.

[3] = system: Staphylococcus aureus ATCC 29213; assay: MIC, microtitration broth method; type: cell-based; conditions: ATCC29213, SA = S. aureus ATCC 29213, 24 h, read-out: MIC
Protocol: as §1, §2, §3

MRSA SA 630 [4] = assay: MIC, microtitration broth method; type: cell-based; conditions: Staphylococcus aureus
Protocol: as §1, §2, §3

MRSA 63718 [5] = assay: MIC, microtitration broth method; type: cell-based; conditions: Staphylococcus aureus
Protocol: as §1, §2, §3

[6] = system: Enterococcus faecalis ATCC 29212; assay: MIC, microtitration broth method; type: cell-based; conditions: for MIC: ATCC29212, EF = Enterococcus faecalis, 24 h, read-out: MIC
Protocol: as §2, §3

[7] = system: S. aureus and MRSA isolates; assay: Antistaphylococcal MIC, summary over strains; type: cell-based, Staphylococcus aureus
Protocol: as §1, with “determined. […] MBC values that meet this requirement, i.e., the compound is bactericidal, are indicated in bold in Table 2.” for “determined.”
as §2
The minimum inhibitory concentrations (MICs) were evaluated by the microtitration broth method according to the CLSI [64, 65] with some modifications. […]

MRSA SA 3202 [8] = assay: MBC, agar aliquot subculture method; type: cell-based; conditions: Staphylococcus aureus
Protocol: as §1
(§4) For the S. aureus and MRSA isolates, the agar aliquot subculture method was used as a test for bactericidal agents. After the MIC value determination, the inoculum was transferred to Mueller–Hinton (Oxoid) agar using a multipoint inoculator. The plates were incubated in a thermostat at 37 °C for 24 h. The lowest concentration of test compound at which ≤5 colonies were obtained was then evaluated as MBC, corresponding to a 99.9% decrease in CFU relative to the original inoculum.

[9] = system: Staphylococcus aureus ATCC 29213; assay: MBC, agar aliquot subculture method; type: cell-based; conditions: ATCC29213, SA = S. aureus ATCC 29213, read-out: MBC
Protocol: as §1, §4

MRSA SA 630 [10] = assay: MBC, agar aliquot subculture method; type: cell-based; conditions: Staphylococcus aureus
Protocol: as §1, §4

MRSA 63718 [11] = assay: MBC, agar aliquot subculture method; type: cell-based; conditions: Staphylococcus aureus, MRSA
Protocol: as §1, §4

MRSA 63718 [12] = system: MRSA 63718; design: method as in PMID 25692135; conditions: cited from earlier work

SMILES	log D6.5 [1]	log D7.4 [1]	log k [1]	IC50 (THP-1 cells) [nM]	MIC [3] [µM]	MIC [6] [µM]	MBC (MRSA SA 3202 [8]) [µM]	MBC [9] [µM]	MBC (MRSA SA 630 [10]) [µM]	MBC (MRSA 63718 [11]) [µM]	MIC (MRSA SA 3202 [2]; 24 h) [µM]	MIC (MRSA SA 630 [4]; 24 h) [µM]	MIC (MRSA 63718 [5]; MRSA, 24 h) [µM]	further results
O=C(Nc1cc(Cl)c(Cl)cc1Cl)c1ccc2ccccc2c1O [Compound 1, 1-hydroxy-N-(2,4,5-trichlorophenyl)-2-naphthamide]	0.5782	0.5384	0.6600	> 30000	698 (≈ 256 µg/mL)	477 (≈ 175 µg/mL)	–	–	–	–	–	–	–	MIC (MRSA SA 3202 [2]; MRSA3 = SA 3202, 24 h, read-out: MIC): 698 µM (≈ 256 µg/mL); MIC (MRSA SA 630 [4]; MRSA2 = SA 630, 24 h, read-out: MIC): 698 µM (≈ 256 µg/mL); MIC (MRSA 63718 [5]; MRSA1 = MRSA 63718, 24 h, read-out: MIC): 698 µM (≈ 256 µg/mL); antistaphylococcal/antibacterial activity (in words) ([7]; S. aureus and MRSA isolates): no antibacterial activity
CCCCNC(=O)Oc1c(C(=O)Nc2cc(Cl)c(Cl)cc2Cl)ccc2ccccc12 [Compound 4, 2-[N-(2,4,5-Trichlorophenyl)carbamoyl]naphthalen-1-yl butyl carbamate]	0.9980	1.1401	1.0756	3420 ± 100	0.034 (≈ 0.0158 µg/mL)	275 (≈ 128 µg/mL)	0.069 (≈ 0.0321 µg/mL)	0.034 (≈ 0.0158 µg/mL)	0.537 (≈ 0.25 µg/mL)	0.268 (≈ 0.125 µg/mL)	0.069 (≈ 0.0321 µg/mL)	0.017 (≈ 0.00792 µg/mL)	0.135 (≈ 0.0629 µg/mL)	MIC ([7]; Staphylococcus aureus, read-out: MICs): 0.018 to 0.064 µM (≈ 0.00838 to 0.0298 µg/mL)
O=C(NC1CCCCC1)Oc1c(C(=O)Nc2cc(Cl)c(Cl)cc2Cl)ccc2ccccc12 [Compound 11, 2-[N-(2,4,5-Trichlorophenyl)carbamoyl]naphthalen-1-yl cyclohexyl carbamate]	1.2952	1.2955	1.2911	2760 ± 240	0.128 (≈ 0.063 µg/mL)	65.1 (≈ 32 µg/mL)	0.508 (≈ 0.25 µg/mL)	0.508 (≈ 0.25 µg/mL)	1.02 (≈ 0.5 µg/mL)	0.508 (≈ 0.25 µg/mL)	0.508 (≈ 0.25 µg/mL)	0.508 (≈ 0.25 µg/mL)	0.254 (≈ 0.125 µg/mL)	anti-enterococcal activity (in words) ([6]; E. faecalis ATCC 29212): moderate activity
O=C(NC1CCCCCC1)Oc1c(C(=O)Nc2cc(Cl)c(Cl)cc2Cl)ccc2ccccc12 [Compound 12, 2-[N-(2,4,5-Trichlorophenyl)carbamoyl]naphthalen-1-yl cycloheptyl carbamate]	1.4492	1.4527	1.4469	3240 ± 120	0.494 (≈ 0.25 µg/mL)	127 (≈ 64.2 µg/mL)	0.494 (≈ 0.25 µg/mL)	0.494 (≈ 0.25 µg/mL)	0.494 (≈ 0.25 µg/mL)	0.247 (≈ 0.125 µg/mL)	0.494 (≈ 0.25 µg/mL)	0.494 (≈ 0.25 µg/mL)	0.247 (≈ 0.125 µg/mL)	lipophilicity (experimental log k/log D, approximate) [1]: ca. 1.45
O=C(NCCc1ccccc1)Oc1c(C(=O)Nc2cc(Cl)c(Cl)cc2Cl)ccc2ccccc12 [Compound 13, 2-[N-(2,4,5-Trichlorophenyl)carbamoyl]naphthalen-1-yl 2-phenylethyl carbamate]	1.2473	1.2470	1.2450	2790 ± 280	0.062 (≈ 0.0319 µg/mL)	125 (≈ 64.2 µg/mL)	0.243 (≈ 0.125 µg/mL)	0.062 (≈ 0.0319 µg/mL)	0.973 (≈ 0.5 µg/mL)	0.123 (≈ 0.0632 µg/mL)	0.123 (≈ 0.0632 µg/mL)	0.062 (≈ 0.0319 µg/mL)	0.123 (≈ 0.0632 µg/mL)	–
O=C(NCCCCc1ccccc1)Oc1c(C(=O)Nc2cc(Cl)c(Cl)cc2Cl)ccc2ccccc12 [Compound 14, 2-[N-(2,4,5-Trichlorophenyl)carbamoyl]naphthalen-1-yl 4-phenylbutyl carbamate]	1.5193	1.5191	1.5167	2730 ± 370	0.116 (≈ 0.0629 µg/mL)	118 (≈ 63.9 µg/mL)	0.461 (≈ 0.25 µg/mL)	0.116 (≈ 0.0629 µg/mL)	0.461 (≈ 0.25 µg/mL)	0.231 (≈ 0.125 µg/mL)	0.231 (≈ 0.125 µg/mL)	0.116 (≈ 0.0629 µg/mL)	0.231 (≈ 0.125 µg/mL)	lipophilicity (experimental log k/log D, approximate) [1]: ca. 1.25; lipophilicity (experimental log k/log D, approximate) ([1]; listed as 15): ca. 1.52
CN[C@H](CC(C)C)C(=O)N[C@H]1C(=O)N[C@@H](CC(N)=O)C(=O)N[C@H]2C(=O)N[C@H]3C(=O)N[C@H](C(=O)N[C@H](C(=O)O)c4cc(O)cc(O)c4-c4cc3ccc4O)[C@H](O)c3ccc(c(Cl)c3)Oc3cc2cc(c3O[C@@H]2O[C@H](CO)[C@@H](O)[C@H](O)[C@H]2O[C@H]2C[C@](C)(N)[C@H](O)[C@H](C)O2)Oc2ccc(cc2Cl)[C@H]1O [vancomycin]	–	–	–	–	–	–	–	–	–	–	–	–	–	MIC (MRSA 63718 [12]): 2 µg/mL (≈ 1.38 µM)
